{"source": "paper PMC9226124", "about": "“Macrocycle-stabilization of its interaction with 14-3-3 increases plasma membrane localization and activity of CFTR” (Nature Communications, 2022)", "key": {"[1]": {"biological_target": "T1, 14-3-3β/CFTRpS753pS768 complex (Homo sapiens, UniProt P13569+P31946)", "T1 construct": "His6 (cleaved yes); made in house; peptide synthetic", "T1 sequence (P31946 whole entry)": "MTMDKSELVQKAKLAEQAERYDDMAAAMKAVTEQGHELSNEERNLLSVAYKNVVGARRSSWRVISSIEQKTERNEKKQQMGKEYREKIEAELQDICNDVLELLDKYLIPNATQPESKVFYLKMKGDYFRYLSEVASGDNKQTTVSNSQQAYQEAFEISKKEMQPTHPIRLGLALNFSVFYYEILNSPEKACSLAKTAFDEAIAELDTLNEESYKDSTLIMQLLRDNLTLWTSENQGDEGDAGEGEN", "T1 sequence (P13569 747-774 limits assumed)": "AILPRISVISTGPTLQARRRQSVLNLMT", "assay": "FP assay, 14-3-3β titration at constant compound concentration (apparent KD)", "type": "binding", "settings": "for FP signal, 14-3-3β titration / FP signal: compound 100 μM; for FP signal, 14-3-3β titration / FP signal / Polarization: replicates; for Polarization: FC 100 uM, peptide 100 nM, listed as FC; for Fluorescence polarization signal, 14-3-3β titration: FC-A (100 μM)", "procedure": "FC-A (100 µM) was added as a positive control and DMSO as the negative control. […] Background polarization was subtracted from all values, n = 3 technical replicates. […] Source data are provided as a Source Data file. […]\nThe FITC-labeled peptides were dissolved in FP buffer (10 mM HEPES pH 7.4, 150 mM NaCl, 0.1% Tween20, 1 mg/mL BSA) to a final concentration of 100 nM or 10 nM. […] The dilution series were made in 384 Corning Black Round Bottom well plates and their polarization was measured with a Tecan Infinite F500 plate reader (ex. = 485 nm, em. = 535 nm). The method of fitting of the curves was: “log(agonist) vs. response – Variable slope (four parameters)” from GraphPad Prism. The equation is Y = Bottom + (Top-Bottom)/(1 + 10^((LogEC50-X)*HillSlope)).\nfrom the hit validation library.\nf the compound, 100 µM FC-A, or both compound and FC-A, 100 µM each. Background polarization was subtracted f\nrom all values, n=3 technical replicates.\nSource data are provided as a Source Data file."}, "[2]": {"biological_target": "T2, F508del-CFTR in BHK cells (Homo sapiens, UniProt P13569, DEL508-508)", "T2 construct": "expressed in transfected cells; host or cells: baby hamster kidney (BHK) cells", "T2 sequence (P13569 with tags, fused parts or gaps DEL508-508)": "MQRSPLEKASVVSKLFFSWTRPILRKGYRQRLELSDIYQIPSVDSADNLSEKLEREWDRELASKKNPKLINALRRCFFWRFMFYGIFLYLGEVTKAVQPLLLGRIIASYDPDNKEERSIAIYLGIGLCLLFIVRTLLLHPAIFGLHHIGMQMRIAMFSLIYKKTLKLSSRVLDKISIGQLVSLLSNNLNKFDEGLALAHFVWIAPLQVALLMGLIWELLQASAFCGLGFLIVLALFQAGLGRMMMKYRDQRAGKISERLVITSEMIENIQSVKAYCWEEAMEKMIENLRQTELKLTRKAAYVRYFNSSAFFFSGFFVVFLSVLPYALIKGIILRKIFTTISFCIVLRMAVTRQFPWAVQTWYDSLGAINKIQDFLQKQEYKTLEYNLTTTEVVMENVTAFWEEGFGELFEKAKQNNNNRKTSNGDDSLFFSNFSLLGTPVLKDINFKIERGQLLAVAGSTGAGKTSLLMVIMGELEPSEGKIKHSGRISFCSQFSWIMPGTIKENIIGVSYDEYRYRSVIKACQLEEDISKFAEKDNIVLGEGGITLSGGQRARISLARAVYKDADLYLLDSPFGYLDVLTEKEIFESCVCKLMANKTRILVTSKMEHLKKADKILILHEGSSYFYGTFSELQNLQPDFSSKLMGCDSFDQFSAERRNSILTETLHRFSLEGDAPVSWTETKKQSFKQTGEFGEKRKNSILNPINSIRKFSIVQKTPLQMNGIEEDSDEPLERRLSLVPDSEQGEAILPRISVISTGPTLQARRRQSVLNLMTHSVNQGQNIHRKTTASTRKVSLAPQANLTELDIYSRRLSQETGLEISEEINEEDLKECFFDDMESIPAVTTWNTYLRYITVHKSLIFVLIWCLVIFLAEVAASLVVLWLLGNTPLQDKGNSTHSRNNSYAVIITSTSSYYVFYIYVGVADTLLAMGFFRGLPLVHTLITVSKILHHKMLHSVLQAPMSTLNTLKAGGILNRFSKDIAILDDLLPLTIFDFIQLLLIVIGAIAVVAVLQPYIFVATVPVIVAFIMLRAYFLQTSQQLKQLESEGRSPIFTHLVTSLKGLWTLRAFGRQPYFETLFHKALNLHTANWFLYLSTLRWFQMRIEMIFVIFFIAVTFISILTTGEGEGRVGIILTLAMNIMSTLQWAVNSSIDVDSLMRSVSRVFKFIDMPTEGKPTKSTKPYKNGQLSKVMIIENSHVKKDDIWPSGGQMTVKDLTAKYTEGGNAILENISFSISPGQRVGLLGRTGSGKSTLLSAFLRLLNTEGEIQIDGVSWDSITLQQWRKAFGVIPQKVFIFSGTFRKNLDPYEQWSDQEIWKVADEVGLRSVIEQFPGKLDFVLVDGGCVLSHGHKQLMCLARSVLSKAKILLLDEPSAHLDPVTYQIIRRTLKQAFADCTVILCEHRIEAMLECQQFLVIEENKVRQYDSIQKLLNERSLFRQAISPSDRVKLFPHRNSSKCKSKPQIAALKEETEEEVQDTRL", "assay": "FLIPR membrane potential (FMP) assay", "type": "cell-based, hamster", "settings": "individual replicates", "procedure": "Twelve (12) validated hit compounds from the initial screening and focused validation library were tested for their effect on F508del-CFTR trafficking. Baby hamster kidney (BHK) cells expressing 3HA-tagged F508del-CFTR were treated for 24 h with 10 μM compound. After fixation of the cells, a combination of mouse monoclonal anti-HA antibody and anti-mouse IgG conjugated with FITC was used to detect F508del-CFTR that had trafficked to the plasma membrane as described previously. […] Additionally, a fluorescence imaging plate reader (FLIPR) Membrane Potential (FMP) assay was performed. This assay measures real-time membrane potential changes associated with ion channel activation and ion transporter proteins. F508del-CFTR expressing BHK cells were incubated for 24 h with 20 μM compound before treatment with the potentiator genistein, FMP dye, and activator forskolin. The fluorescence intensity is thus a measure for the function of the CFTR protein in the plasma membrane of these cells. The F508del-CFTR corrector VX-809 (lumacaftor) and the triple combination Trikafta® were used as positive controls in this assay. […] Another cellular assay was performed with the Ussing Chamber, which detects and quantifies transport of ions across epithelial tissue. F508del-CFTR expressing cystic fibrosis epithelial (CFBE) cells were treated for 18 h with 20 μM CY007424. After forskolin and genistein stimulation, the short-circuit current of the cells was measured.\nFig. 5 Cellular activity of macrocycles stabilizing the 14-3-3/CFTR PPI. a Surface expression of 3HA-tagged F508del-CFTR in BHK cells incubated for 24 h with 10 μM compound and treated with mouse monoclonal anti-HA antibody and anti-mouse IgG conjugated with FITC (n = 4 or n = 3 biological replicates, bars represent the mean). b, c FLIPR Membrane Potential (FMP) assay of F508del-CFTR expressing BHK cells treated for 24 h with the macrocycles (b, n = 6 biological replicates, bars represent the mean) or with CY007424 and/or VX-809 or Trikafta®, with and without CFTR inhibitor INH172 (c, n = 4 biological replicates, bars represent the mean). d Using chamber experiment of F508del-CFTR expressing CFBE cells treated for 18 h with CY007424, VX-809, or Trikafta® or in combinations. CFTR activity is assayed by measurement of short-circuit current of cells after stimulation by forskolin and the potentiator genistein (n = 3 or n = 6 biological replicates, bars represent the mean). Source data are provided as a Source Data file.\nThe FLuorescence Imaging Plate Reader (FLIPR) Membrane Potential (FMP) assay is based on the technique developed by Van Goor et al.[30] F508del-CFTR expressing baby hamster kidney (BHK) cells were incubated with the compounds for 24 h at 37 °C. The growth medium was removed from the cells by inverting the plate and FMP dye (Molecular Devices, Part #R8042) including the potentiator genistein (Sigma, G6649) was added back in 70 μl of low Cl^- containing buffer (160 mM NaGluconate, 4.5 mM KCl, 2 mM CaCl2, 1 mM MgCl2, 10 mM D-Glucose, 10 mM HEPES (pH7.4)). The plates were incubated for 5 min at RT before activation of CFTR in the plate reader (SynergyMX) with the addition of 14 µL of FMP dye in low Cl^- buffer containing 6x forskolin (Sigma, F6886) following a 2 min baseline read. Fluorescence intensity was monitored for 5 min following CFTR activation. Reported is the rate of fluorescence intensity change over time."}}, "note": "“And” between values parts separate entries of the source, which are not always exact repeats. Equal entries are not always repeated.", "data": [{"smiles": "C=CC(C)(C)OC[C@H]1O[C@H](O[C@@H]2C3=C([C@H](C)COC(C)=O)C[C@H](O)[C@]3(C)/C=C3/[C@@H](COC)CC[C@H]3[C@@H](C)[C@H]2O)[C@H](O)[C@@H](OC(C)=O)[C@@H]1O", "note": "[FC-A, fusicoccin A, reference compound]", "values": [{"measurement": "FP signal, 14-3-3β titration", "setting": "[1]; 14-3-3β 1.95313e-6 M", "result": "32.3333 and 30.3333 and 31.3333"}, {"measurement": "FP signal", "setting": "[1]; 14-3-3β 2.28125e-6 M", "result": "97 and 94 and 86"}, {"measurement": "Polarization", "setting": "[1]; 14-3-3β 3.90625e-6 M", "result": "135 and 137"}, {"measurement": "FP signal, 14-3-3β titration", "setting": "[1]; 14-3-3β 3.90625e-6 M", "result": "47.3333 (2×) and 44.3333"}, {"measurement": "FP signal", "setting": "[1]; 14-3-3β 4.5625e-6 M", "result": "137 and 131 and 124"}, {"measurement": "Polarization", "setting": "[1]; 14-3-3β 7.8125e-6 M", "result": "175 and 176"}, {"measurement": "FP signal, 14-3-3β titration", "setting": "[1]; 14-3-3β 7.8125e-6 M", "result": "71.3333 and 69.3333 and 64.3333"}, {"measurement": "FP signal", "setting": "[1]; 14-3-3β 9.125e-6 M", "result": "171 and 164 and 159"}, {"measurement": "Polarization", "setting": "[1]; 14-3-3β 1.5625e-5 M", "result": "212 and 209"}, {"measurement": "FP signal, 14-3-3β titration", "setting": "[1]; 14-3-3β 1.5625e-5 M", "result": "98.3333 and 94.3333 (2×)"}, {"measurement": "FP signal", "setting": "[1]; 14-3-3β 1.825e-5 M", "result": "202 and 191 and 192"}, {"measurement": "Polarization", "setting": "[1]; 14-3-3β 3.125e-5 M", "result": "234 and 235 and 231"}, {"measurement": "FP signal, 14-3-3β titration", "setting": "[1]; 14-3-3β 3.125e-5 M", "result": "123.333 and 117.333 and 124.333"}, {"measurement": "FP signal", "setting": "[1]; 14-3-3β 3.65e-5 M", "result": "216 and 213 and 212"}, {"measurement": "Polarization", "setting": "[1]; 14-3-3β 6.25e-5 M", "result": "246 and 249 and 248"}, {"measurement": "FP signal, 14-3-3β titration", "setting": "[1]; 14-3-3β 6.25e-5 M", "result": "146.333 and 138.333 and 142.333"}, {"measurement": "FP signal", "setting": "[1]; 14-3-3β 7.3e-5 M", "result": "227 and 226 and 224"}, {"measurement": "Polarization", "setting": "[1]; 14-3-3β 0.000125 M", "result": "256 and 254"}, {"measurement": "FP signal, 14-3-3β titration", "setting": "[1]; 14-3-3β 0.000125 M", "result": "152.333 and 153.333 and 150.333"}, {"measurement": "FP signal", "setting": "[1]; 14-3-3β 0.000146 M", "result": "232 and 230 and 229"}, {"measurement": "Polarization", "setting": "[1]; 14-3-3β 0.00025 M", "result": "260 and 261 and 258"}, {"measurement": "FP signal, 14-3-3β titration", "setting": "[1]; 14-3-3β 0.00025 M", "result": "165.333 and 161.333 and 167.333"}, {"measurement": "FP signal, 14-3-3β titration", "setting": "[1]; 14-3-3β 0.0005 M", "result": "177.333 and 174.333 and 175.333"}, {"measurement": "Fluorescence polarization signal, 14-3-3β titration", "setting": "[1]; 14-3-3β concentration 119.2 pM", "result": "3.333 and 5.333"}, {"measurement": "Fluorescence polarization signal, 14-3-3β titration", "setting": "[1]; 14-3-3β concentration 238.4 pM", "result": "3.333 and 4.333 and 2.333"}, {"measurement": "Fluorescence polarization signal, 14-3-3β titration", "setting": "[1]; 14-3-3β concentration 476.8 pM", "result": "4.333 and 2.333"}, {"measurement": "Fluorescence polarization signal, 14-3-3β titration", "setting": "[1]; 14-3-3β concentration 953.7 pM", "result": "4.333 and 6.333"}, {"measurement": "Fluorescence polarization signal, 14-3-3β titration", "setting": "[1]; 14-3-3β concentration 6.10352e-8 M", "result": "7.333 and 6.333"}, {"measurement": "Fluorescence polarization signal, 14-3-3β titration", "setting": "[1]; 14-3-3β concentration 1.2207e-7 M", "result": "5.333 and 9.333 and 6.333"}, {"measurement": "Fluorescence polarization signal, 14-3-3β titration", "setting": "[1]; 14-3-3β concentration 2.44141e-7 M", "result": "9.333 and 10.3333 and 5.333"}, {"measurement": "Fluorescence polarization signal, 14-3-3β titration", "setting": "[1]; 14-3-3β concentration 4.88281e-7 M", "result": "9.333 and 12.3333"}, {"measurement": "Fluorescence polarization signal, 14-3-3β titration", "setting": "[1]; 14-3-3β concentration 9.76563e-7 M", "result": "18.3333 and 11.3333 and 16.3333"}, {"measurement": "Fluorescence polarization signal, 14-3-3β titration", "setting": "[1]; 14-3-3β concentration 1.95313e-6 M", "result": "32.3333 and 30.3333 and 31.3333"}, {"measurement": "Fluorescence polarization signal, 14-3-3β titration", "setting": "[1]; 14-3-3β concentration 3.90625e-6 M", "result": "47.3333 and 44.3333"}, {"measurement": "Fluorescence polarization signal, 14-3-3β titration", "setting": "[1]; 14-3-3β concentration 7.8125e-6 M", "result": "71.3333 and 69.3333 and 64.3333"}, {"measurement": "Fluorescence polarization signal, 14-3-3β titration", "setting": "[1]; 14-3-3β concentration 1.5625e-5 M", "result": "98.3333 and 94.3333"}, {"measurement": "Fluorescence polarization signal, 14-3-3β titration", "setting": "[1]; 14-3-3β concentration 3.125e-5 M", "result": "123.333 and 117.333 and 124.333"}, {"measurement": "Fluorescence polarization signal, 14-3-3β titration", "setting": "[1]; 14-3-3β concentration 6.25e-5 M", "result": "146.333 and 138.333 and 142.333"}, {"measurement": "Fluorescence polarization signal, 14-3-3β titration", "setting": "[1]; 14-3-3β concentration 0.000125 M", "result": "152.333 and 153.333 and 150.333"}, {"measurement": "Fluorescence polarization signal, 14-3-3β titration", "setting": "[1]; 14-3-3β concentration 0.00025 M", "result": "165.333 and 161.333 and 167.333"}, {"measurement": "Fluorescence polarization signal, 14-3-3β titration", "setting": "[1]; 14-3-3β concentration 0.0005 M", "result": "177.333 and 174.333 and 175.333"}, {"measurement": "FMP assay signal (Fig5c)", "setting": "[2]; Compound alone", "result": "170.429 and 204.929 and 173.75 and 189.679"}, {"measurement": "FMP assay signal (Fig5c)", "setting": "[2]; With CFTR-inh172", "result": "23.571 and 18.107 and 23.429 and 27.536"}, {"measurement": "FMP assay signal (Fig5b)", "setting": "[2]", "result": "224.714 and 247.893 and 215.429 and 224.357 and 209.61 and 238.08"}]}]}
